Patent publication US20120202701A1, “AN ANTIBODY-GLYCAN COMPLEX TARGETING THE DISIALYL CORE II AND SIALYL LEWIS X STRUCTURES, AND USES THEREOF INVOLVING ANALYSIS OF STEM CELLS OR CANCER CELLS” (GLYKOS FINLAND OY, priority 2009, published 2012)

Key:
mAb CSLEX = test: Glycan microarray analysis (Consortium for Functional Glycomics, printed array version 4.0), glycan binding of mAb CSLEX; details: mAb CSLEX at 50 μg/ml; average RFU of 6 replicates after removal of highest and lowest values
Procedure: (§1) mAb CHO-131 was purchased from R&D Systems (MAB996). mAb CSLEX was purchased form BD Biosciences (551344). Glycan microarray analysis was carried out by the Consortium for Functional Glycomics. Glycan microarrays were printed as described (Blixt 2004). Version 4.0 of the printed glycan array was used for analysis. Binding analysis was performed at 50 μg/ml of antibody. Data are reported as average RFU of 6 replicates after removal of highest and lowest values.

mAb CHO-131 = test: Glycan microarray analysis (Consortium for Functional Glycomics, printed array version 4.0), glycan binding of mAb CHO-131; details: for RFU: mAb CHO-131 at 50 μg/ml, average RFU of 6 replicates after removal of highest and lowest values; for binding to CHO-131 antibody, in words: glycan microarray, as described
Procedure: as §1

Row | RFU (mAb CSLEX) | RFU (mAb CHO-131) | binding to CHO-131 antibody, in words (mAb CHO-131) | SMILES
1 | 12653 RFU | 22706 RFU |  | CC(=O)NC1C(OCCCN)OC(CO)C(OC2OC(COS(=O)(=O)O)C(O)C(OC3(C(=O)O)CC(O)C(NC(C)=O)C(C(O)C(O)CO)O3)C2O)C1O (stereo not drawn) [compound 43]
2 | 22795 RFU | 36255 RFU |  | CC(=O)NC1C(O)CC(OC2C(O)C(COS(=O)(=O)O)OC(OC3C(CO)OC(OCCCN)C(NC(C)=O)C3OC3OC(C)C(O)C(O)C3O)C2O)(C(=O)O)OC1C(O)C(O)CO (stereo not drawn) [compound 220]
3 | 31104 RFU | 29505 RFU |  | CC(=O)NC1C(O)CC(OC2C(O)C(CO)OC(OC3C(CO)OC(OC4C(O)C(CO)OC(OC5C(CO)OC(OC6C(O)C(CO)OC(OC7C(CO)OC(OCCN)C(NC(C)=O)C7OC7OC(C)C(O)C(O)C7O)C6O)C(NC(C)=O)C5OC5OC(C)C(O)C(O)C5O)C4O)C(NC(C)=O)C3OC3OC(C)C(O)C(O)C3O)C2O)(C(=O)O)OC1C(O)C(O)CO (stereo not drawn) [compound 242]
4 | 13988 RFU | 20068 RFU | somewhat weaker binding | CC(=O)NC1C(O)CC(OC2C(O)C(CO)OC(OC3C(CO)OC(OCCN)C(NC(C)=O)C3OC3OC(C)C(O)C(O)C3O)C2O)(C(=O)O)OC1C(O)C(O)CO (stereo not drawn) [compound 243]
5 | 19491 RFU | 34336 RFU | ligand for the antibody | CC(=O)NC1C(O)CC(OC2C(O)C(CO)OC(OC3C(CO)OC(OCCCN)C(NC(C)=O)C3OC3OC(C)C(O)C(O)C3O)C2O)(C(=O)O)OC1C(O)C(O)CO (stereo not drawn) [compound 244]
6 | 22997 RFU | 33335 RFU | third best ligand structure | CC(=O)NC1C(O)CC(OC2C(O)C(CO)OC(OC3C(CO)OC(OC4C(O)C(CO)OC(OCCCN)C4O)C(NC(C)=O)C3OC3OC(C)C(O)C(O)C3O)C2O)(C(=O)O)OC1C(O)C(O)CO (stereo not drawn) [compound 245]
7 | 27193 RFU | 24587 RFU |  | CC(=O)NC1C(OCCCN)OC(CO)C(OC2OC(CO)C(O)C(OC3OC(CO)C(OC4OC(CO)C(O)C(OC5(C(=O)O)CC(O)C(NC(C)=O)C(C(O)C(O)CO)O5)C4O)C(OC4OC(C)C(O)C(O)C4O)C3NC(C)=O)C2O)C1O (stereo not drawn) [compound 246]
8 | 4766 RFU | 9521 RFU |  | CC(=O)NC1C(OCCN)OC(CO)C(OC2OC(CO)C(O)C(OC3(C(=O)O)CC(O)C(NC(=O)CO)C(C(O)C(O)CO)O3)C2O)C1OC1OC(C)C(O)C(O)C1O (stereo not drawn) [compound 271]
9 | 29 RFU | 1306 RFU |  | CC(=O)N[C@H]1[C@H](OCCN)O[C@H](COS(=O)(=O)O)[C@@H](O[C@@H]2O[C@H](COS(=O)(=O)O)[C@H](O)[C@H](O)[C@H]2O)[C@@H]1O [compound 287]
10 | 39 RFU | 5434 RFU |  | CC(=O)NC1C(OCCCN)OC(CO)C(O)C1OC1OC(C(=O)O)C(O)C(O)C1O (stereo not drawn) [compound 299]
11 | 42 RFU |  |  | CC(=O)NC1C(O)CC(OC2C(O)C(CO)OC(OC3C(NC(C)=O)C(OC4C(O)C(CO)OC(OC5C(NC(C)=O)C(OCCN)OC(CO)C5OC5OC(C)C(O)C(O)C5O)C4O)OC(CO)C3OC3OC(C)C(O)C(O)C3O)C2O)(C(=O)O)OC1C(O)C(O)CO (stereo not drawn) [compound 326]
12 | 41 RFU | 706 RFU | some binding | CC(=O)N[C@H]1[C@H](O[C@H]2[C@@H](O)[C@@H](CO)O[C@@H](O[C@H]3[C@H](O[C@@H]4O[C@@H](C)[C@@H](O)[C@@H](O)[C@@H]4O)[C@@H](NC(C)=O)[C@H](O[C@H]4[C@@H](O)[C@@H](CO)O[C@@H](O[C@H]5[C@H](O[C@@H]6O[C@@H](C)[C@@H](O)[C@@H](O)[C@@H]6O)[C@@H](NC(C)=O)[C@H](OCCN)O[C@@H]5CO)[C@@H]4O)O[C@@H]3CO)[C@@H]2O)O[C@H](CO)[C@@H](O[C@@H]2O[C@H](CO)[C@H](O[C@H]3O[C@H](CO)[C@@H](O)[C@H](O)[C@H]3NC(C)=O)[C@H](O)[C@H]2O)[C@@H]1O [compound 337]
